Experimental data from the NIST ThermoML archive (doi:10.1016/j.jct.2012.06.031).
Numbers after ± are expanded uncertainties.

Experiment: xn = mol fraction of the nth substance listed
Conditions: 101 kPa, Liquid; for viscosity: Concentric cylinders viscometry; for mass density: Vibrating tube method

CC(O)CO (stereo not given) [1,2-propanediol] + c1ccncc1
Conditions | mass density [kg/m3] | viscosity [mPa·s]
288.15 K, x2 = 0 | 1040.08 ± 0.14 | 81.21 ± 0.6
288.15 K, x2 = 0.1 | 1035.59 ± 0.13 | 52.73 ± 0.19
288.15 K, x2 = 0.2 | 1030.94 ± 0.13 | 33 ± 0.16
288.15 K, x2 = 0.2999 | 1026.33 ± 0.13 | 20.08 ± 0.095
288.15 K, x2 = 0.4 | 1021.39 ± 0.12 | 12.08 ± 0.056
288.15 K, x2 = 0.4999 | 1016.46 ± 0.12 | 7.326 ± 0.034
288.15 K, x2 = 0.6 | 1011.23 ± 0.12 | 4.547 ± 0.022
288.15 K, x2 = 0.7001 | 1005.6 ± 0.12 | 3 ± 0.015
288.15 K, x2 = 0.8 | 999.698 ± 0.12 | 1.935 ± 0.012
288.15 K, x2 = 0.9 | 994.093 ± 0.12 | 1.391 ± 0.0099
293.15 K, x2 = 0 | 1036.46 ± 0.14 | 58.75 ± 0.25
293.15 K, x2 = 0.1 | 1031.78 ± 0.13 | 38.74 ± 0.18
293.15 K, x2 = 0.2 | 1026.95 ± 0.13 | 24.82 ± 0.12
293.15 K, x2 = 0.2999 | 1022.18 ± 0.13 | 15.55 ± 0.07
293.15 K, x2 = 0.4 | 1017.12 ± 0.12 | 9.643 ± 0.043
293.15 K, x2 = 0.4999 | 1012.06 ± 0.12 | 6.036 ± 0.027
293.15 K, x2 = 0.6 | 1006.71 ± 0.12 | 3.857 ± 0.018
293.15 K, x2 = 0.7001 | 1000.96 ± 0.12 | 2.588 ± 0.013
293.15 K, x2 = 0.8 | 994.925 ± 0.12 | 1.736 ± 0.011
293.15 K, x2 = 0.9 | 989.201 ± 0.12 | 1.274 ± 0.0095
298.15 K, x2 = 0 | 1032.8 ± 0.14 | 43.44 ± 0.2
298.15 K, x2 = 0.1 | 1027.92 ± 0.13 | 29.09 ± 0.14
298.15 K, x2 = 0.2 | 1022.93 ± 0.13 | 19.05 ± 0.087
298.15 K, x2 = 0.2999 | 1018.01 ± 0.12 | 12.15 ± 0.055
298.15 K, x2 = 0.4 | 1012.81 ± 0.12 | 7.822 ± 0.035
298.15 K, x2 = 0.4999 | 1007.63 ± 0.12 | 5.021 ± 0.023
298.15 K, x2 = 0.6 | 1002.16 ± 0.12 | 3.31 ± 0.016
298.15 K, x2 = 0.7001 | 996.296 ± 0.12 | 2.292 ± 0.013
298.15 K, x2 = 0.8 | 990.138 ± 0.12 | 1.567 ± 0.01
298.15 K, x2 = 0.9 | 984.298 ± 0.12 | 1.171 ± 0.0093
303.15 K, x2 = 0 | 1029.09 ± 0.14 | 32.75 ± 0.15
303.15 K, x2 = 0.1 | 1024.03 ± 0.13 | 22.28 ± 0.1
303.15 K, x2 = 0.2 | 1018.88 ± 0.13 | 14.9 ± 0.068
303.15 K, x2 = 0.2999 | 1013.81 ± 0.12 | 9.81 ± 0.044
303.15 K, x2 = 0.4 | 1008.48 ± 0.12 | 6.396 ± 0.029
303.15 K, x2 = 0.4999 | 1003.18 ± 0.12 | 4.234 ± 0.02
303.15 K, x2 = 0.6 | 997.549 ± 0.12 | 2.866 ± 0.014
303.15 K, x2 = 0.7001 | 991.612 ± 0.12 | 2.008 ± 0.012
303.15 K, x2 = 0.8 | 985.331 ± 0.12 | 1.425 ± 0.0099
303.15 K, x2 = 0.9 | 979.376 ± 0.12 | 1.082 ± 0.009
308.15 K, x2 = 0 | 1025.34 ± 0.13 | 25.16 ± 0.12
308.15 K, x2 = 0.1 | 1020.1 ± 0.13 | 17.37 ± 0.08
308.15 K, x2 = 0.2 | 1014.79 ± 0.13 | 11.85 ± 0.054
308.15 K, x2 = 0.2999 | 1009.58 ± 0.12 | 7.981 ± 0.036
308.15 K, x2 = 0.4 | 1004.12 ± 0.12 | 5.363 ± 0.025
308.15 K, x2 = 0.4999 | 998.699 ± 0.12 | 3.638 ± 0.017
308.15 K, x2 = 0.6 | 992.998 ± 0.12 | 2.514 ± 0.013
308.15 K, x2 = 0.7001 | 986.903 ± 0.12 | 1.795 ± 0.011
308.15 K, x2 = 0.8 | 980.506 ± 0.12 | 1.301 ± 0.0096
308.15 K, x2 = 0.9 | 974.443 ± 0.12 | 1.002 ± 0.0089
313.15 K, x2 = 0 | 1021.55 ± 0.13 | 19.65 ± 0.09
313.15 K, x2 = 0.1 | 1016.14 ± 0.13 | 13.76 ± 0.063
313.15 K, x2 = 0.2 | 1010.67 ± 0.13 | 9.567 ± 0.043
313.15 K, x2 = 0.2999 | 1005.32 ± 0.12 | 6.581 ± 0.03
313.15 K, x2 = 0.4 | 999.722 ± 0.12 | 4.523 ± 0.021
313.15 K, x2 = 0.4999 | 994.186 ± 0.12 | 3.137 ± 0.015
313.15 K, x2 = 0.6 | 988.375 ± 0.12 | 2.218 ± 0.012
313.15 K, x2 = 0.7001 | 982.171 ± 0.12 | 1.613 ± 0.01
313.15 K, x2 = 0.8 | 975.66 ± 0.12 | 1.193 ± 0.0093
313.15 K, x2 = 0.9 | 969.488 ± 0.12 | 0.9311 ± 0.0087
318.15 K, x2 = 0 | 1017.73 ± 0.13 | 15.58 ± 0.071
318.15 K, x2 = 0.1 | 1012.14 ± 0.13 | 11.07 ± 0.05
318.15 K, x2 = 0.2 | 1006.51 ± 0.12 | 7.833 ± 0.036
318.15 K, x2 = 0.2999 | 1001.02 ± 0.12 | 5.495 ± 0.025
318.15 K, x2 = 0.4 | 995.298 ± 0.12 | 3.855 ± 0.018
318.15 K, x2 = 0.4999 | 989.644 ± 0.12 | 2.729 ± 0.014
318.15 K, x2 = 0.6 | 983.722 ± 0.12 | 1.972 ± 0.012
318.15 K, x2 = 0.7001 | 977.41 ± 0.12 | 1.459 ± 0.01
318.15 K, x2 = 0.8 | 970.792 ± 0.12 | 1.098 ± 0.0091
318.15 K, x2 = 0.9 | 964.514 ± 0.12 | 0.8674 ± 0.0086
323.15 K, x2 = 0 | 1013.86 ± 0.13 | 12.55 ± 0.058
323.15 K, x2 = 0.1 | 1008.1 ± 0.13 | 9.082 ± 0.041
323.15 K, x2 = 0.2 | 1002.32 ± 0.12 | 6.551 ± 0.03
323.15 K, x2 = 0.2999 | 996.693 ± 0.12 | 4.678 ± 0.022
323.15 K, x2 = 0.4 | 990.839 ± 0.12 | 3.349 ± 0.016
323.15 K, x2 = 0.4999 | 985.073 ± 0.12 | 2.416 ± 0.013
323.15 K, x2 = 0.6 | 979.044 ± 0.12 | 1.786 ± 0.011
323.15 K, x2 = 0.7001 | 972.625 ± 0.12 | 1.341 ± 0.0097
323.15 K, x2 = 0.8 | 965.9 ± 0.12 | 1.022 ± 0.0089
323.15 K, x2 = 0.9 | 959.522 ± 0.12 | 0.8177 ± 0.0084
